Reference: patent publication US6410516B1

What was measured:
70Z/3 cells = settings: 10 μg/mo cycloheximide; cited from earlier work
HeLa cells = settings: anisomycin at 10; cited from earlier work
NF-κB = test: GTP stimulation of NF-κB complex formation in the binding assay; assay type: biochemical; settings: GTP 3 mM added to the binding assay; virus-induced extracts
endogenous κ gene = test: Northern blot, endogenous κ gene expression in 70Z/3 cells; assay type: cell-based, mouse; settings: PMA 50 ng/ml, LPS 15 μg/ml or Sendai virus, 0 to 20 hr
Description: (§1) FIG. 42C presents results of Northern blot analyses of 70Z/3 cells treated with various inducers.
(§2) RNA preparation and Northern blot analysis were carried out as previously described by Zinn et al., Cell, 34, 865-879 (1983).

endogenous β-IFN mRNA = test: Northern blot, endogenous β-IFN mRNA in 70Z/3 cells; assay type: cell-based, mouse; settings: PMA 50 ng/ml, LPS 15 μg/ml or Sendai virus, 0 to 20 hr
Description: as §1, §2

AP-1 in HeLa cells = test: TPA stimulation, AP-1 DNA-binding activity in HeLa subcellular fractions; assay type: cell-based, human
Description: FIG. 28 represents analysis of subcellular fractions for DNA-binding activity of the TPA-inducible transcription factor AP-1. Equal cell-equivalents of nuclear extracts (N) and cytosolic fractions (C) from 70Z/3 and HeLa cells were used in mobility shift assays. AP-1 specific DNA-binding activity was detected using an end-labeled EcoRI-HindIII fragment from the yeast HIS 4 promoter containing three binding sites for GCN4 recognized by mammalian AP-1. The three protein-DNA complexes seen on shorter exposures of the fluorogram are indicated by filled arrowheads and the position of unbound DNA-fragment by an open arrowhead.

NF-KB in 70Z/3 cells = test: TPA stimulation, subcellular fractions of 70Z/3 cells (mobility shift assay); assay type: cell-based, mouse; settings: TPA-stimulated cells; fractions treated with formamide and DOC; densitometric scanning
Description: Nuclear extracts, cytosolic and postnuclear membrane fractions were analyzed at equal amounts of protein in an electrophoretic mobility shift assay, described in Example 1, followed by fluorography.
To examine whether the form of NF-kB detected after in vitro activation in the cytosolic fraction could quantitatively account for the NF-kB found in nuclear extracts after TPA stimulation of cells, subcellular fractions of 70Z/3 cells were reinvestigated in mobility shift assays after treatment with formamide and DOC using equal cell-equivalents of subcellular fractions. Equal cell-equivalents of nuclear extracts (N) and cytosolic (C) and post-nuclear membrane fractions (P) from control (Co) and TPA-stimulated cells (TPA) were left untreated (lanes 1-6 and 13-18) or subjected to a formamide/desoxycholate treatment (Fa+DOC; lanes 7-12 and 19-24; for conditions see FIG. 31, lane 11). This treatment was preferred over the DOC/NP-40 chase treatment because it gave a higher resolution of bands in mobility shift assays. DNA-binding reactions were performed in the presence of 3.2 ug poly(d[I-C]) using 4.4 ug of protein from nuclear extracts, 8.8 ug of protein from cytosolic fractions or 2.2 ug of protein from postnuclear membrane fractions (all in 4 ul buffer D(+)). Fluorograms of native gels are shown. […]

In the case of `C[C@@H]1C[C@@H]([C@H](O)CC2CC(=O)NC(=O)C2)C(=O)[C@@H](C)C1` [cycloheximide], the “inhibition of protein synthesis” value (70Z/3 cells) is listed as “greater than 95%”.
In the case of `COc1ccc(C[C@H]2NC[C@H](O)[C@H]2OC(C)=O)cc1` [anisomycin], the “inhibition of protein synthesis” value (HeLa cells) is listed as “approximately 99%”.
With `Nc1nc2c(ncn2[C@@H]2O[C@H](COP(=O)(O)OP(=O)(O)OP(=O)(O)O)[C@@H](O)[C@H]2O)c(=O)[nH]1` [GTP] the NF-κB complex formation (NF-κB) was “stimulated”.
In the case of `CCCCCCCCCCCCCC(=O)O[C@@H]1[C@@H](C)[C@@]2(O)[C@@H](C=C(CO)C[C@]3(O)C(=O)C(C)=C[C@@H]23)[C@@H]2C(C)(C)[C@]12OC(C)=O` [PMA, phorbol 12-myristate-13-acetate], the “endogenous κ gene expression” value (endogenous κ gene) is reported as “activation of the endogenous κ gene”, the “endogenous β-IFN mRNA” value (endogenous β-IFN mRNA) is reported as “not” and the “AP-1 DNA-binding activity in nuclear extracts after TPA-stimulation” value (AP-1 in HeLa cells) is reported as “did not show an increase”. For the same compound, the “kB-specific DNA-binding activity found in nuclear extracts” value (NF-KB in 70Z/3 cells) was 80%.
